Consider eight compounds from article PMC2765055 (Bioorganic & medicinal chemistry, 2009).

The nature of data set [1]: Cytotoxicity, EBV/Akata column. Type of data set: cell-based. Conditions: human, Akata cells.
Data set [2] deals with EBV. Put plainly: EBV DNA hybridization assay in Akata cells. Type of data set: cell-based, Epstein-Barr virus.
For data set [3], the system named is HSV-1. The note with it: read-out: EC50 HSV-1/BSC-1; ELISA in BSC-1 cells; cited from earlier work. (In general: In an ELISA, binding on a coated surface is turned into a signal by an enzyme label.)
The next data set concerns KB cells. Conditions: read-out: CC50 HSV-1/BSC-1; replicating KB cells; cited from earlier work.
The subject of another data set is MEF. Conditions: read-out: CC50 MCMV/MEF; cited from earlier work.
Data set [4] relates to EBV. The note with it: read-out: EC50 EBV/Akata; DNA hybridization assay; cited from earlier work.
Another data set concerns HCMV AD169 strain. The note with it: read-out: EC50 HCMV/HFF AD169, plaque reduction; cited from earlier work.
The test system of data set [5] is HFF cells. The note with it: neutral red uptake, cited from earlier work.
The subject of data set [6] is HFF cells. Conditions: read-out: CC50 HCMV/HFF Towne; visual cytotoxicity of HFF; cited from earlier work.
Data set [7] has as its system VZV. The note with it: cited from earlier work; for EC50: read-out: EC50 VZV/HFF, CPE assay.
The subject of data set [8] is HSV-2. The note with it: read-out: EC50 HSV-2/HFF; CPE assay; cited from earlier work.
Data set [9] has as its system HSV-1. Conditions: read-out: EC50 HSV-1/HFF; CPE assay; cited from earlier work.
Data set [10] has as its system HSV-1. The note with it: read-out: EC50 HSV-1/BSC-1; plaque reduction in BSC-1 cells; cited from earlier work.
The test system of data set [11] is EBV. Conditions: read-out: EC50 EBV; Daudi cells, viral capsid antigen (VCA) assay; cited from earlier work.
Data set [12] deals with hepatitis B virus (HBV). Conditions: cited from earlier work.
Data set [13] relates to HCMV Towne strains with mutations in UL97. Put plainly: HCMV Towne strains with UL97 mutations. Type of data set: cell-based, human cytomegalovirus. Conditions: strains E8 and 2696r.
Data set [14] concerns HFF cells. Put plainly: Cytotoxicity by neutral red uptake. Type of data set: cell-based. Conditions: read-out: CC50 HSV-1/HFF; neutral red uptake, HSV-1/HFF column.
Data set [15] is described as follows: Cytotoxicity by neutral red uptake. The note with it: human, HFF cells. Type of data set: cell-based.
Data set [16] can be described thus: Visual cytotoxicity of HFF's in cells unaffected by virus. Type of data set: cell-based. Conditions: human, HFF cells (not affected by virus).
Data set [17] concerns HCMV, MCMV, HSV-1, HSV-2, VZV, EBV, HBV, HCV. Nature of the data set: Antiviral panel, all tested viruses. The class given is cell-based.
A short description of data set [18]: Cytotoxicity in replicating KB cells. The class given is cell-based. Conditions: human.
For data set [19], the system named is VZV. Nature of the data set: VZV CPE assay in HFF. The class given is cell-based, varicella zoster virus.
The next data set concerns hepatitis C virus (HCV). Put plainly: HCV antiviral test. Type of data set: cell-based.
Data set [20] concerns hepatitis B virus (HBV). Nature of the data set: HBV antiviral test. Type of data set: cell-based.
The test system of data set [21] is HSV-1. Nature of the data set: HSV-1 CPE inhibition assay in HFF. The class given is cell-based, herpes simplex virus type 1. Conditions: Human alphaherpesvirus 1, read-out: EC50 HSV-1/HFF.
In data set [22] the test system is HSV-2. Put plainly: HSV-2 CPE inhibition assay in HFF. The class given is cell-based, herpes simplex virus type 2. Conditions: Human alphaherpesvirus 2, read-out: EC50 HSV-2/HFF.
Data set [23] in a line: Cytotoxicity, MCMV/MEF column. Conditions: mouse, MEF cells. Type of data set: cell-based.
The mark [24] stands for this setting: read-out: CC50 HCMV/HFF AD169, AD169 column.
[25] abbreviates: read-out: CC50 HSV-1/HFF, HSV-1/HFF column.

Molecules are shown by their SMILES. “Also recorded” adds a separate entry of the source. Read-outs that look alike come from different tables or passages of the source.

As for `Nc1nc2c(ncn2COCCO)c(=O)[nH]1` [Acyclovir, acyclovir], in [1], the CC50 was > 100 µM. Besides, the EC50 in the data set on EBV [2] (human gammaherpesvirus 4, Akata, read-out: EC50 EBV/Akata) worked out at 8.4 µM.

Consider `Nc1nc2c(ncn2/C=C2/CC2(CO)CO)c(=O)[nH]1` [Compound 2b, cyclopropavir], for which the EC50 is > 100 µM in the data set with HSV-1 [3]; 0.22 µM in the data set on EBV [4]; 0.49 µM in the data set on HCMV AD169 strain; > 380 µM in the data set on VZV [7]; > 380 µM with HSV-2 [8]; > 380 µM in the data set on HSV-1 [9]. Also, the CC50 in the data set on KB cells is > 100 µM; with MEF it was > 380 µM; in the data set with HFF cells [5] (setting [24]), > 380 µM; with HFF cells [5] (setting [25]) it was > 380 µM; in the data set with HFF cells [6], > 100 µM. Besides, the “activity against VZV” value in the data set with VZV [7] (HFF) was “ineffective”.

In the case of `Nc1nc(O)c2ncn(/C=C3/CC34COP(=O)(O)OC4)c2n1` (stereo not shown) [Compound 10], the EC50 is 20 µM in the data set with HSV-1 [10]; 0.96 µM in the data set with EBV [11]; 6 µM with HCMV AD169 strain; > 301 µM in the data set on VZV [7]; > 301 µM in the data set on HSV-1 [9]. Further, the CC50 was > 100 µM with KB cells; > 301 µM in the data set with MEF; > 301 µM with HFF cells [5] (setting [24]); > 301 µM in the data set on HFF cells [5] (setting [25]); > 100 µM in the data set on HFF cells [6]. The “activity against HBV” value with hepatitis B virus (HBV) [12] is listed as “effective”.

Take `Nc1nc2c(ncn2/C=C2/CC2(CO)CCP(=O)(O)O)c(=O)[nH]1` (stereo not drawn) [Compound 12, (Z)-9-{[2-(Hydroxymethy)l-2-(2-phosphonoethyl)cyclopropylidene]methyl}guanine]: in data set [13], the “activity against UL97 mutant strains compared with wild-type Towne HCMV” value is on record as “as active”. Further, the CC50 (with HFF cells [14]; in data set [15]) was > 300 µM in each case.

For `Nc1nc2c(ncn2/C=C2\CC2(CO)CCP(=O)(O)O)c(=O)[nH]1` (stereo not drawn) [Compound 13, (E)-9-{[2-(Hydroxymethy)l-2-(2-phosphonoethyl)cyclopropylidene]methyl}guanine], the CC50 in [16], in data set [1] and in [18] was > 100 µM each time. Besides, in [17], the “antiviral activity against all tested viruses” value is listed as “devoid of potency; also recorded: devoid of antiviral activity”.

Turning to `Nc1nc2c(ncn2/C=C2/CC23CCP(=O)(O)OC3)c(=O)[nH]1` (stereo not shown) [Compound 14], the “activity against VZV” value with VZV [19] (HFF) is on record as “ineffective”. Besides, the “activity against UL97 mutant strains compared with wild-type Towne HCMV” value in [13] was “as active”. In addition, the “activity against HCV” value with hepatitis C virus (HCV) is “inactive”. For the same compound, the “activity against HBV” value with hepatitis B virus (HBV) [20] is “inactive”. The “activity against EBV” value in the data set on EBV [2] (Akata cells) is “inactive; also recorded: ineffective”.

For `Nc1nc2c(ncn2/C=C2\CC23CCP(=O)(O)OC3)c(=O)[nH]1` (stereo not shown) [Compound 15], the EC50 with VZV [19] (Human alphaherpesvirus 3, read-out: EC50 VZV/HFF) is > 300 µM; in the data set with HSV-1 [21] it was > 300 µM; in the data set with HSV-2 [22] it was > 300 µM. Also, the CC50 was > 100 µM in data set [16]; > 100 µM in data set [1]; > 300 µM with HFF cells [14]; > 300 µM in data set [15]; > 100 µM in [18]. Moreover, the “antiviral activity against all tested viruses” value in [17] was “devoid of potency; also recorded: devoid of antiviral activity”.

On to `Nc1nc(O)c2ncn(COC(CO)CO)c2n1` [Ganciclovir, ganciclovir], for which the CC50 in data set [16], in data set [15] and in [23] was > 100 µM in each case.
